Data taken from patent publication US20080193530A1 (priority 2007, published 2008).
“Also recorded” adds a separate entry of the source.

System: glycosylated hemoglobin level (HbA1C)
Assay: Clinical study of ranolazine (IV dose, then oral sustained release) vs placebo in patients having coronary disease: HbA1C
Assay type: in vivo, human
Source text: Baseline is in-hospital visit prior to hospitalization.

[1] = Diabetes at enrollment, ranolazine group (n = 1098), Month 16
[2] = No Diabetes at enrollment, ranolazine group (n = 2170), Final Visit
[3] = No Diabetes at enrollment, ranolazine group (n = 2170), Month 4
[4] = No Diabetes at enrollment, ranolazine group (n = 2170), Month 8
[5] = No Diabetes at enrollment, ranolazine group (n = 2170), Month 16

With `COc1ccccc1OCC(O)CN1CCN(CC(=O)Nc2c(C)cccc2C)CC1` (racemic) [Ranolazine, (±)-N-(2,6-dimethylphenyl)-4-[2-hydroxy-3-(2-methoxyphenoxy)-propyl]-1-piperazineacetamide] the “Proportion of patients with HbA1c ≧7% by diabetes at enrollment” value (Diabetes at enrollment, ranolazine group (n = 1098), Baseline) was 57%, the “Proportion of patients with HbA1c ≧7% by diabetes at enrollment” value (Diabetes at enrollment, ranolazine group (n = 1098), Final Visit) was 42% and the “Proportion of patients with HbA1c ≧7% by diabetes at enrollment” value (Diabetes at enrollment, ranolazine group (n = 1098), Month 4) was 41%. The “Proportion of patients with HbA1c ≧7% by diabetes at enrollment” value (Diabetes at enrollment, ranolazine group (n = 1098), Month 8) was 44%, the “Number of patients with HbA1c ≧7% by diabetes at enrollment” value [1] was 63 and the “Proportion of patients with HbA1c ≧7% by diabetes at enrollment” value [1] was 48%. The “Proportion of patients with HbA1c ≧7% by diabetes at enrollment” value (No Diabetes at enrollment, ranolazine group (n = 2170), Baseline) was 6%, the “Number of patients with HbA1c ≧7% by diabetes at enrollment” value [2] was 92 and the “Proportion of patients with HbA1c ≧7% by diabetes at enrollment” value [2] was 6%. The “Number of patients with HbA1c ≧7% by diabetes at enrollment” value [3] was 78, the “Proportion of patients with HbA1c ≧7% by diabetes at enrollment” value [3] was 5% and the “Number of patients with HbA1c ≧7% by diabetes at enrollment” value [4] was 72. The “Proportion of patients with HbA1c ≧7% by diabetes at enrollment” value [4] was 6%, the “Number of patients with HbA1c ≧7% by diabetes at enrollment” value [5] was 21 and the “Proportion of patients with HbA1c ≧7% by diabetes at enrollment” value [5] was 7%. The “Effect on serum HbA1c levels (FIGS. 1 and 2)” value (all patients treated) was “HbA1c lowering effect on all patients treated; also recorded: significantly lowers serum HbA1C levels”, the “Number of patients with HbA1C ≧7%” value (all patients, ranolazine group (n = 3268), Month 16) was 84 and the “Effect on HbA1c levels (FIG. 2)” value (diabetic patients treated with ranolazine) was “reduction in the amount of HbA1C levels”. The “Effect on HbA1c levels (FIG. 2)” value (non-diabetic patients treated with ranolazine) was “reduction in the amount of HbA1C levels”.
